Source: PMC7714071, “Interaction of amyloid beta with humanin and acetylcholinesterase is modulated by ATP” (FEBS Open Bio, 2020)

Columns and labels:
[1] = system: Aβ from A549 cell-conditioned media; assay: ELISA, HN (endogenous and exogenously added) and AChE bound to Aβ from A549 media on 82E1 antibody; assay type: binding, human; details: Fig. 6A
Experimental: Human NSCLC cell lines, A549 (ATCC CCL‐185) and H1299 (ATCC CRL‐5803), were purchased from the American Type Culture Collection (ATCC, Manassas, VA, USA). Cells were seeded as we reported earlier in 5 mL HyClone Dulbecco's modified Eagle's medium/nutrient mixture F‐12 (DMEM/F12) (GE Healthcare Life Sciences, Pittsburgh, PA, USA), supplemented with 10% Fetalgro bovine growth serum (FBS; RMBIO, Missoula, MT, USA), 50 U·mL^−1 penicillin, and […] streptomycin (Invitrogen, Life Technologies, Carlsbad, CA, USA) in 25‐cm^2 tissue culture flasks, and allowed to grow overnight in an incubator at 37 °C, 95% humidity, and 5% CO2. The cells were counted after trypan blue staining, with a hemocytometer.
ELISAs were carried out as we previously reported. Nunc MaxiSorp 96‐well flat bottom plate (Thermo Fisher) wells were coated with samples as indicated. The plates were incubated overnight at 4 °C on a shaker to allow binding of the samples to the plate wells. After the incubation, the wells were washed 4× with TBST, filled with 400 µL blocking buffer (110 mM KCl, 5 mM NaHCO3, 5 mM MgCl2, 1 mM EGTA, 0.1 mM CaCl2, 20 mM HEPES, 1% BSA, pH 7.4), and incubated with shaking overnight at 4 °C. The wells were then washed 4× with TBST, and 100 µL of sample at the desired concentration was added to each well and incubated with shaking overnight at 4 °C. TBST was then used to wash the wells 4× before proceeding in one of two ways: (a) biotinylated samples were analyzed by adding 100 µL streptavidin–HRP conjugate in TBST (1 : 2500 dilution) to the samples followed by incubation for 3 h at RT on a shaker, or (b) samples without biotin were analyzed by adding 100 µL TBST containing the primary antibody as per the manufacturer's recommendation, incubating for 3 h at RT on a shaker, followed by washing the wells 4× with TBST. The secondary antibody in 100 µL TBST was then added to the samples following the manufacturer's recommendation and incubated for 1 h at RT on a shaker. […] The reaction was stopped with 100 µL 2 M H2SO4 after incubating at RT for 0.5–15 min, resulting in a yellow color change, measured by absorbance at 450 nm. To monitor nonspecific binding, negative control wells on the plates included, for example, bound Aβ peptide then adding all components, streptavidin‐HRP and TMB, but without addition of biotin‐HN. Some wells were coated with 2.5, 10, 50, 100, 500, and 5000 nM biotin‐HN or Aβ to allow conversion of the OD measurements to concentrations of bound material. Before analysis, the OD from the data was corrected for nonspecific binding by subtracting the mean background absorbance for the negative controls. Typically, in control wells incubated on each plate, the background binding is about 10–15% of the maximum binding seen with addition of biotin peptides or antibodies. Statistical analysis was determined by the […] PRISM 8.4.3 software (San Diego, CA, USA). Data were expressed as the mean ± SD. […]
Anti‐Aβ‐specific antibodies (82E1) were added (1 : 1000 dilution) to ELISA plate wells (Fig. 6). The wells were blocked, and then, 300 µL of the conditioned media (0.5 µg·µL^−1) of A549 or H1299 cells, 72 h postserum starvation, was added in the absence or presence of increasing HN concentrations, and the HN and AChE bound were detected using the corresponding specific primary antibodies. Fold change relative to controls that included all components but without the primary antibodies was calculated and fit with a nonlinear regression curve using the […] […]

A549 cells = details: cited from earlier work
Experimental: Since addition of ATP appears to increase binding of HN to Aβ, and conversely, decreases the interaction of Aβ with AChE (Figs 3, 4, 5, 6), we tested the effect of added ATP on A549 and H1299 cell viability (Fig. 7). Exogenously added ATP at either 100 µM or 1 mM had no effect on viability of either A549 (Fig. 7A) or H1299 cells (Fig. 7B).

Molecule	effect of ATP on binding of exogenously added HN to Aβ ([1]; 0.1 mM, 1 mM ATP (more pronounced at 1 mM), A549 media)	effect of ATP on binding of Aβ to AChE ([1]; A549 cell-conditioned media, 82E1)	effect of ATP on binding of endogenous HN to Aβ ([1]; increasing ATP (0.1 mM, 1 mM; more pronounced at 1 mM), A549 media, 82E1)	effect of ATP on A549 cell viability (A549 cells; 100 μM or 1 mM ATP)	HN concentration at which signal begins to level off ([1]; exogenous HN, A549 media)	binding of exogenous HN to Aβ ([1]; increasing exogenous HN, A549 media, 82E1)	cell viability upon ID of HN (A549 cells; HN immunodepleted from A549 conditioned media)	apoptosis upon ID of HN (A549 cells; HN-ID A549 media)
Nc1ncnc2c1ncn2[C@@H]1O[C@H](COP(=O)(O)OP(=O)(O)OP(=O)(O)O)[C@@H](O)[C@H]1O [ATP, Adenosine triphosphate]	decreased binding of exogenously added HN	decreased upon addition of ATP	increased binding of endogenous HN	no effect				
Humanin [HN]					around 50 nM	increased binding to Aβ	diminished cell viability	increased apoptosis
